Measurements taken from US20250092086A1, “CELASTROL SALTS, CRYSTALLINE FORMS, AND USES THEREOF” (ERX Pharmaceuticals Inc., priority 2022, published 2025).
Values after ≈ are worked out from the molar mass of the structure shown. “Also recorded” adds a separate entry of the source.

Experiments:
Format in all cases: physicochemical
[1] = Hygroscopicity (DVS), water sorption/desorption at 37° C.; settings: for DVS (hygroscopicity): water sorption/desorption isotherms at 37° C., 0-95% RH
Description: The hygroscopicity experiments were carried out with a DVS Intrinsic from S.M.S. This technique is designed to accurately measure a sample's change in mass as it sorbs precisely controlled concentrations of water vapors in an air carrier gas. The method used for DVS experiments (at 37° C.) is summarized below. • Equilibrating 10 min at 50% RH • Decreasing to 0% RH in 60 min • Equilibrating 10 min at 0% RH • Increasing to 95% RH in 280 min • Equilibrating 10 min at 95% RH • Decreasing to 50% RH in 100 min • Equilibrating 20 min at 50% RH
The hygroscopic experiments were carried out with a DVS Intrinsic from S.M.S. This technique is designed to accurately measure a sample's change in mass as it sorbs precisely controlled concentrations of water vapors in an air carrier gas. All the methods used for DVS experiments are summarized below. It should be noticed that the temperature and relative humidity (RH) are pre-set according to the initial temperature and RH.
• Equilibrating 120 min at 50% RH • Decreasing to 0% RH in 60 min • Equilibrating 150 min at 0% RH • Increasing to 95% RH in 200 min • Equilibrating 360 min at 95% RH • Decreasing to 50% RH in 100 min • Equilibrating 150 min at 50% RH
The hygroscopicity experiments were carried out with a DVS Intrinsic from S.M.S. This technique is designed to accurately measure a sample's change in mass as it sorbs precisely controlled concentrations of water vapors in an air carrier gas. All the methods used for DVS experiments are summarized below, and it should be noticed that the temperature and relative humidity (RH) are pre-set according to the initial temperature and RH.
The hygroscopicity experiments were carried out with a DVS Intrinsic from S.M.S. This technique is designed to accurately measure a sample's change in mass as it sorbs precisely controlled concentrations of water vapors in an air carrier gas. All the methods used for DVS experiments are summarized below. It should be noticed that the temperature and relative humidity (RH) are pre-set according to the initial temperature and RH.

[2] = Solubility profile of Compound 1 Form III in water, ethanol and methanol; settings: for solubility: thermodynamic from solid
Description: The solubility of Compound 1 Form III was measured in the following solvents: water, ethanol and methanol. The determination of the solubility profile was performed with a Thermomixer Eppendorf driving the temperature and the mixing. The stock solutions were prepared according to the USP (United States Pharmacopeia), and then about 1 mL of these stock solutions was added to the API in tubes of 2 mL.

[3] = Polymorph screening, cooling experiments (solubility of Form III in screening solvents); settings: all solvents tested with the exception of dichloromethane, even at high temperature
Description: Solutions of Compound 1 Form III were prepared at respectively 50 and 150 g/L in each solvent. Heat was applied when necessary to get a solution. Once a solution was obtained, the vials were cooled down to 10° C.

[4] = XRPD under temperature and relative humidity; settings: for XRPD under temperature: impact / new crystalline phase: 25 to 100° C., RH set at 30%; for XRPD under relative humidity: impact / new crystalline phase: RH 10 to 80-90% at 40° C.
Description: Method 1: influence of temperature at ambient RH. RH was set at 30% in order to simulate a RH near from the ambient RH, and the temperature studied were 25-[…]-100° C.
Method 2: influence on RH at 40° C. The RH studied was at 10-30-80%.
These experiments studied the influence of temperature at ambient RH. RH was wet at 30% in order to simulate a RH near from the ambient RH, and the temperatures studied were 25-50-100° C.
These experiments studied the influence on RH at 40° C. The RH studied were 10-30-88%.
Using Method 1, the influence of temperature at ambient RH was studied. RH was set at 30% in order to simulate a RH near from the ambient RH, and the temperatures studied were 25-50-100° C. FIG. 24 provides the XRPD pattern representing the influence of temperature on Compound 1 Form I.
Using Method 2, the influence on RH at 40° C. was studied. The RH studied were 10-30-90%.
Using Method 1, the influence of temperature at ambient RH was studied. RH was set at 30% in order to simulate a RH near from the ambient RH. Temperature studied: 25-50-100° C.
Using Method 2, the influence on RH at 40° C. was studied at 10-30-90%.

[5] = pH solubility profile at 37° C. of Compound 1 Form III
Description: All the buffer solutions were prepared according to the U.S.P namely hydrochloric acid buffer for pH=2.0, acid phthalate buffer for pH=4.0, phosphate buffer for pH=6.0, alkaline borate buffer for pH=8.0, which correspond to the native pH. At the end of the solubility study, the pH of the solutions were controlled again (final pH) to determine any variation. The solubility was measured at 37° C. The maximum concentration limit was set at 100 g/L max to minimize consumption of the tested compound.

CC1=C(O)C(=O)C=C2C1=CC=C1[C@@]2(C)CC[C@@]2(C)[C@@H]3C[C@](C)(C(=O)O)CC[C@]3(C)CC[C@]12C [Compound 1 Form III, 3-hydroxy-9β,13α-dimethyl-2-oxo-24,25,26-trinoroleana-1(10),3,5,7-tetraen-29-oic acid]
Hysteresis observed with the final mass at 50% RH ([1]; DVS, 37° C.): No hysteresis | Mass decrease as RH was lowered to 0% ([1]; DVS, 37° C.): ~0.06% | Mass increase as RH was increased to 95% ([1]; DVS, 37° C.): ~0.09% | Water uptake, water sorption/desorption isotherms ([1]; DVS, 37° C.): < 0.2% | DVS (hygroscopicity) [1]: non-hygroscopic | DVS (hygroscopicity) ([1]; listed as FIII): Not hygroscopic | DVS (hygroscopicity) ([1]; listed as Form III): nonhygroscopicity; also recorded: Non hygroscopic compound | solubility ([2]; 30 °C, water, 10, 30 and 50° C.): < 1 mg/mL | Solubility profile: ethanol (description) ([2]; ethanol): Ethanol: Soluble | Solubility profile: methanol (description) ([2]; methanol): Methanol: Sparingly Soluble | solubility ([2]; organic solvent or mixture, ethanol, 10° C.): 33 to 38 mg/mL (≈ 73.2 to 84.3 mM) | solubility ([2]; organic solvent or mixture, ethanol, 30° C.): 33 to 38 mg/mL (≈ 73.2 to 84.3 mM) | solubility ([2]; organic solvent or mixture, ethanol, 50° C.): 33 to 38 mg/mL (≈ 73.2 to 84.3 mM) | solubility ([2]; organic solvent or mixture, methanol, 10° C.): 27 to 33 mg/mL (≈ 59.9 to 73.2 mM) | solubility ([2]; organic solvent or mixture, methanol, 30° C.): 27 to 33 mg/mL (≈ 59.9 to 73.2 mM) | solubility ([2]; organic solvent or mixture, methanol, 50° C.): 27 to 33 mg/mL (≈ 59.9 to 73.2 mM) | Solubility profile: water (description) ([2]; water): Water: Very slightly soluble | Solubility in the screening solvents [3]: low solubility | XRPD under temperature: impact / new crystalline phase [4]: stable | XRPD under temperature: impact / new crystalline phase ([4]; listed as FIII): =>No new crystalline | XRPD under relative humidity: impact / new crystalline phase [4]: stable | XRPD under relative humidity: impact / new crystalline phase ([4]; listed as FIII): =>No new crystalline | solubility ([5]; USP buffer solutions, aqueous buffer, thermodynamic from solid, USP buffers, native pH 2.0, 4.0, 6.0 and 8.0, read-out: Solubility range): < 1 mg/mL | pH solubility profile, description form ([5]; pH 2.0 to 8.0): very slight solubility; also recorded: Very slightly | pH solubility profile, description form ([5]; pH 2.0 to 8.0, listed as Form III): From pH = 2 to pH = 8: very slightly soluble
